Legend:
[1] = system: walnut twig beetle (WTB), Pityophthorus juglandis; assay: Example 1 Field Test 4: flight response to X with and without racemic chalcogran; assay type: in vivo; conditions: yellow sticky card traps, Davis CA
Method: (§1) Field Bioassays of Semiochemicals. To test the attractiveness of the various compounds of interest, some of the commercially available materials listed above were poured into 15 ml capped polyethylene bottles (Product #s A1-1050/002, A1-1055/002; Contech Enterprises Inc., Delta, British Columbia, Canada) and attached to yellow sticky card traps (Trécé, Adair, OK). In addition, synthesized (+) and (−) enantiomers of trans-conophthorin were tested in 400 μl polyethylene Eppendorf microcentrifuge tubes. Four field studies were conducted (Table 2) that tested the flight responses to: 3-methyl-2-buten-l-ol and related isomers (Field Test 1); 3-methyl-2-buten-l-ol with and without racemic trans-conophthorin (Field Test 2); 3-methyl-2-buten-l-ol with and without the purified enantiomers of trans-conophthorin (Field Test 3); and 3-methyl-2-buten-l-ol with and without racemic chalcogran (Field Test 4).
(§2) Statistical Analysis. Field Tests 1-4 were each analyzed for treatment effect by using Friedman's non-parametric analysis of variance. (See Zar, J. H. 2010. Biostatistical Analysis, 5th Ed. Pearson Prentice Hall, New Jersey). Males and females were subjected to separate analyses. All treatments within experiments yielding a significant treatment effect were compared by using an a posteriori Nemenyi test (Zar 2010) with experimentwise α=0.05. Sex ratios of responding WTB were determined using Cochran's method for unbiased sampling (See Cochran, W. G. 1977. Sampling Techniques, 3rd ed. John Wiley, New York), with 95% confidence intervals calculated by using the Clopper-Pearson method. (See Zar, J. H. 2010. Biostatistical Analysis, 5th Ed. Pearson Prentice Hall, New Jersey).

[2] = system: WTB; assay: Trap type: clear sticky panel vs 4-unit Lindgren funnel traps baited with X; assay type: in vivo, Pityophthorus juglandis; conditions: for trap catches, female WTB / trap catches, male WTB: 5 mg/d, 15 ml load
Method: In another set of experiments, the response of WTB to clear sticky panel traps and 4-unit Lindgren funnel traps was tested. Both were baited with 3-methyl-2-buten-1-ol (5 mg/d, 15 ml load). The clear plexiglass panel traps were coated with Stikem Special (Seabright Labs, Emeryville, Calif.). The experiment was conducted in late spring in a native riparian stand of J. hindsii at Shadow Cliffs Regional Park, Alameda Co., Calif. The pairs of traps were hung at a height of 3 m in the crowns of J. hindsii and arranged in six spatial blocks. Treatments were re-randomized among the trap stations each time that the traps were emptied (approx. weekly, after periodic WTB flights). Trap catches of males and females were normalized by the available trapping surface area for each trap type.
Statistical Analyses. Analyses of treatment effects for the tests of trap type were performed by using Friedman's non-parametric analysis of variance or a sign test, depending on the number of treatments. (See Zar, J. H. 2010. Biostatistical Analysis. 5th ed. Pearson Prentice Hall, Englewood Cliffs, N.J.) Analysis of treatment effects for the Rain•X experiment was performed by using a Wilcoxon paired sample test. Id. Multiple comparisons for experiments with more than two treatments were performed with an a posteriori Nemenyi test with experimentwise α=0.05. Id. In all cases, male and female WTB were analyzed separately. Proportions of female WTB responding to treatments were calculated and 95% confidence intervals determined by using the Clopper-Pearson method. Id.

[3] = system: WTB; assay: Example 2 Field Test 1: X in combination with X-3 and X-2; assay type: in vivo, Pityophthorus juglandis; conditions: 4-unit Lindgren funnel traps
Method: Field Bioassays of 3-methyl-2-buten-1-ol in combination with other compounds. The flight response of WTB to 3-methyl-2-buten-1-ol in combination with other compounds was also tested. […] Louis, Mo. […] The five treatments were replicated in three spatial blocks and the treatments were re-randomized among the five trap stations in a block each time the traps were emptied (nearly every day). [table] Statistical Analyses. Analysis of treatment effects for the pouch vs. bottle experiment was done by using a sign test. (See Zar, J. H. 2010. Biostatistical Analysis. 5th ed. Pearson Prentice Hall, Englewood Cliffs, N.J.) The other four experiments were analyzed for treatment effect by using Friedman's non-parametric analysis of variance. Id. In all experiments, males and females were analyzed separately. All treatments within experiments yielding a significant treatment effect were compared by using an a posteriori Nemenyi test with experimentwise α=0.05. Id. For all experiments, differences among proportions of female WTB responding to treatments were analyzed by comparing 95% confidence intervals determined with the Clopper-Pearson method. Id.

[4] = system: walnut twig beetle (WTB), Pityophthorus juglandis; assay: Example 1 Field Test 3: flight response to X with and without enantiomers of trans-conophthorin; assay type: in vivo; conditions: yellow sticky card traps, Pleasanton CA
Method: as §1, §2

[5] = about one month late summer, N=13
[6] = X 15-60 mg/d, X-3 and X-2 1.76 mg/d, N=42

SMILES: CC(C)=CCO [X, 3-methyl-2-buten-1-ol]
- proportion of females responding [1]: 0.69
- trap catches, female WTB [1, 5]: 94
- trap catches, male WTB [1, 5]: 43
- trap catches, female WTB ([2]; 4-unit Lindgren funnel traps): 160
- trap catches, male WTB ([2]; 4-unit Lindgren funnel traps): 110
- trap catches, female WTB ([2]; clear sticky panel traps): 449
- trap catches, male WTB ([2]; clear sticky panel traps): 216
- proportion of females responding ([2]; funnel traps): 0.59
- proportion of females responding ([2]; sticky traps): 0.67
- proportion of females responding [3]: 0.77
- trap catches, female WTB [3, 6]: 636
- trap catches, male WTB [3, 6]: 193
- proportion of females responding [4]: 0.80
- trap catches, female WTB ([4]; about one month in fall, N=15): 47
- trap catches, male WTB ([4]; about one month in fall, N=15): 12

— US20130014428A1, “METHODS OF MONITORING AND CONTROLLING THE WALNUT TWIG BEETLE, PITYOPHTHORUS JUGLANDIS” (The United States of America as Represented by the …, priority 2011, published 2013)
